Experimental findings from patent US20090054392A1, “NAPHTHYLPYRIMIDINE, NAPHTHYLPYRAZINE AND NAPHTHYLPYRIDAZINE ANALOGS AND THEIR USE AS AGONISTS OF THE WNT-BETA-CATENIN CELLULAR MESSAGING SYSTEM” (Wyeth, priority 2007, published 2009) are described below.

The subject of the series is Dkk1-LRP5-TCF-Luciferase. As to the kind of experiment: Functional Dkk1-LRP5-TCF-Luciferase Assay in U2OS Cells. The conditions noted are these: for fold induction at 2 µM / fold induction at 20 µM / EC50: Homo sapiens, U2OS; for fold induction at 2 µM: read-out: B = TCF ACTIVITY/DMSO CONTROL Fold induction @ 2.0 uM, 2.0 uM compound; for fold induction at 20 µM: read-out: C = TCF ACTIVITY/DMSO CONTROL Fold induction @ 20.0 uM, 20.0 uM compound; for A = MAX FOLD Induction/DMSO CONTROL: maximum fold induction over DMSO control.

Consider `O=[N+]([O-])CC1CCN(c2nccc(-c3ccc4ccccc4c3)n2)CC1` [4-(2-naphthyl)-2-[4-(nitromethyl)piperidin-1-yl]pyrimidine], for which the fold induction at 2 µM was found to be 1.5 and the fold induction at 20 µM was found to be 0.68.

For the molecule `CN(C)C(=O)NCCN1CCN(c2nccc(-c3ccc4ccccc4c3)n2)CC1` [N,N-dimethyl-N′-(2-{4-[4-(2-naphthyl)pyrimidin-2-yl]piperazin-1-yl}ethyl)urea], the fold induction at 2 µM was 1.98.

In the case of `CC(=O)N1CCC(CNc2nccc(-c3ccc4ccccc4c3)n2)CC1` [N-[(1-acetylpiperidin-4-yl)methyl]-4-(2-naphthyl)pyrimidin-2-amine], the fold induction at 2 µM is 1.02 and the fold induction at 20 µM was 1.33.

By EC50 is commonly meant the midpoint of the concentration-response curve. Read a high EC50 as weaker potency. With `Cc1ccc2cc(-c3ccnc(N4CCC(CN)CC4)n3)ccc2c1` [1-{1-[4-(6-methyl-2-naphthyl)pyrimidin-2-yl]piperidin-4-yl}methanamine], it took 1220 nM to reach a half-maximal effect (EC50), the fold induction at 2 µM was 2.88 and the “A = MAX FOLD Induction/DMSO CONTROL” value is 2.820 fold.

With `OCC1CCCN([C@@H]2CCN(c3nccc(-c4ccc5ccccc5c4)n3)C2)C1` (stereo partly drawn) [(1-{(3R)-1-[4-(2-naphthyl)pyrimidin-2-yl]pyrrolidin-3-yl}piperidin-3-yl)methanol], the fold induction at 2 µM was 1.49.

For the molecule `c1ccc2cc(-c3ccnc(N4CCC(CN5CCSCC5)C4)n3)ccc2c1` (centres unmarked) [4-({1-[4-(2-naphthyl)pyrimidin-2-yl]pyrrolidin-3-yl}methyl)thiomorpholine], the fold induction at 2 µM is 1.9.

With `CNc1nccc(-c2ccc3ccccc3c2)n1` [N-methyl-4-(2-naphthyl)pyrimidin-2-amine], the fold induction at 2 µM is 1.34.

Turning to `OC1CCN(c2nccc(-c3ccc4ccccc4c3)n2)CC1` [1-[4-(2-naphthyl)pyrimidin-2-yl]piperidin-4-ol], the EC50 stood at 1280 nM, the fold induction at 2 µM was found to be 1.35, the fold induction at 20 µM worked out at 0.28 and the “A = MAX FOLD Induction/DMSO CONTROL” value was found to be 2.224 fold.

Regarding `CC(C)(C)Nc1nccc(-c2ccc3ccccc3c2)n1` [N-(tert-butyl)-4-(2-naphthyl)pyrimidin-2-amine], the fold induction at 2 µM came to 1.75.

Take `O[C@@H]1CCN([C@@H]2CCN(c3nccc(-c4ccc5ccccc5c4)n3)C2)C1` [(3R,3′R)-1′-[4-(2-naphthyl)pyrimidin-2-yl]-1,3′-bipyrrolidin-3-ol]: the fold induction at 20 µM is 2.5.

Take `NC[C@H]1CC[C@@H](c2nccc(-c3ccc4ccccc4c3)n2)CC1` [1-{cis-4-[4-(2-naphthyl)pyrimidin-2-yl]cyclohexyl}methanamine]: the fold induction at 2 µM is 3.4.

For `c1ccc2cc(-c3ccnc(NCCc4ccncc4)n3)ccc2c1` [4-(2-naphthyl)-N-(2-pyridin-4-ylethyl)pyrimidin-2-amine], the midpoint of the response, the EC50, lay at 980 nM; the fold induction at 2 µM is 1.96; the fold induction at 20 µM stood at 0.375; the “A = MAX FOLD Induction/DMSO CONTROL” value was 2.765 fold.

Regarding `CC(C)(C)NC[C@H]1CCN(c2nccc(-c3ccc4ccccc4c3)n2)C1` [2-methyl-N-({(3R)-1-[4-(2-naphthyl)pyrimidin-2-yl]pyrrolidin-3-yl}methyl)propan-2-amine], the fold induction at 2 µM was 2.24, the fold induction at 20 µM came to 0.01 and the “A = MAX FOLD Induction/DMSO CONTROL” value is 2.300 fold.

In the case of `CC(C)(C)OC(=O)N1CCN(C[C@H]2CCN(c3nccc(-c4ccc5ccccc5c4)n3)C2)CC1` [tert-butyl 4-({(3R)-1-[4-(2-naphthyl)pyrimidin-2-yl]pyrrolidin-3-yl}methyl)piperazine-1-carboxylate], the fold induction at 2 µM amounted to 1.95.

As for `c1ccc2cc(-c3ccnc(N4CCCNCC4)n3)ccc2c1` [1-[4-(2-naphthyl)pyrimidin-2-yl]-1,4-diazepane], the fold induction at 2 µM was 1.36 and the fold induction at 20 µM amounted to 0.85.

Turning to `CCOC(=O)C1CCN(c2nccc(-c3ccc4ccccc4c3)n2)CC1` [ethyl 1-[4-(2-naphthyl)pyrimidin-2-yl]piperidine-4-carboxylate], the fold induction at 2 µM stood at 1.64, the fold induction at 20 µM stood at 1.91 and the “A = MAX FOLD Induction/DMSO CONTROL” value turned out to be 1.950 fold.

Turning to `c1ccc2cc(-c3ccnc(N4CC[C@@H](CN5CCCC5)C4)n3)ccc2c1` [4-(2-naphthyl)-2-[(3S)-3-(pyrrolidin-1-ylmethyl)pyrrolidin-1-yl]pyrimidine], the fold induction at 2 µM amounted to 1.9, the fold induction at 20 µM is 5.18 and the “A = MAX FOLD Induction/DMSO CONTROL” value is 4.050 fold.

`c1ccc2cc(-c3ccnc(NC4CCCC4)n3)ccc2c1` [N-cyclopentyl-4-(2-naphthyl)pyrimidin-2-amine]: the fold induction at 2 µM turned out to be 1.95 and the fold induction at 20 µM came out at 0.83.

In the case of `CCNC(=O)NCC1CN(c2nccc(-c3ccc4ccccc4c3)n2)C1` [N-ethyl-N′-({1-[4-(2-naphthyl)pyrimidin-2-yl]azetidin-3-yl}methyl)urea], the fold induction at 20 µM was found to be 1.06.

Consider `CN(c1nccc(-c2ccc3ccccc3c2)n1)C1CCN(S(C)(=O)=O)CC1` [N-methyl-N-[1-(methylsulfonyl)piperidin-4-yl]-4-(2-naphthyl)pyrimidin-2-amine], for which the fold induction at 2 µM is 1.24 and the fold induction at 20 µM worked out at 0.77.

In the case of `CN(C)CCN[C@H]1CCN(c2nccc(-c3ccc4ccccc4c3)n2)C1` [N,N-dimethyl-N′-{(3S)-1-[4-(2-naphthyl)pyrimidin-2-yl]pyrrolidin-3-yl}ethane-1,2-diamine], the fold induction at 2 µM was found to be 1.5.

As to `c1ccc2cc(-c3ccnc(N4CC[C@@H](NCCN5CCOCC5)C4)n3)ccc2c1` [(3R)—N-(2-morpholin-4-ylethyl)-1-[4-(2-naphthyl)pyrimidin-2-yl]pyrrolidin-3-amine], the fold induction at 2 µM came out at 1.71 and the fold induction at 20 µM worked out at 0.21.

`COC(=O)N[C@H]1CCN(c2nccc(-c3ccc4ccccc4c3)n2)C1` [methyl {(3S)-1-[4-(2-naphthyl)pyrimidin-2-yl]pyrrolidin-3-yl}carbamate]: the fold induction at 2 µM amounted to 1.03 and the fold induction at 20 µM came out at 1.63.

As for `O=C1CCCCN1CC1CCN(c2nccc(-c3ccc4ccccc4c3)n2)CC1` [1-({1-[4-(2-naphthyl)pyrimidin-2-yl]piperidin-4-yl}methyl)piperidin-2-one], the fold induction at 2 µM came to 1.55 and the fold induction at 20 µM is 0.73.

In the case of `O=C(N[C@@H]1CCN(c2nccc(-c3ccc4ccccc4c3)n2)C1)N1CCCC1` [N-{(3R)-1-[4-(2-naphthyl)pyrimidin-2-yl]pyrrolidin-3-yl}pyrrolidine-1-carboxamide], the fold induction at 2 µM came out at 1.41 and the fold induction at 20 µM is 0.27.

As to `CN(C)S(=O)(=O)NC1CCCN(c2nccc(-c3ccc4ccccc4c3)n2)CC1` (centres unmarked) [N,N-dimethyl-N′-{1-[4-(2-naphthyl)pyrimidin-2-yl]azepan-4-yl}sulfamide], the fold induction at 2 µM was 1.12 and the fold induction at 20 µM came to 1.01.

Consider `NC(=O)NCCC1CCN(c2nccc(-c3ccc4ccccc4c3)n2)CC1` [N-(2-{1-[4-(2-naphthyl)pyrimidin-2-yl]piperidin-4-yl}ethyl)urea], for which the “A = MAX FOLD Induction/DMSO CONTROL” value was determined as 1.112 fold.

As to `O=CNCC1CCN(c2nccc(-c3ccc4ccccc4c3)n2)C1` (centres unmarked) [N-({1-[4-(2-naphthyl)pyrimidin-2-yl]pyrrolidin-3-yl}methyl)formamide], the fold induction at 2 µM was found to be 1.09 and the fold induction at 20 µM worked out at 1.68.

On to `CCNC(=O)NCC1CCN(c2nccc(-c3ccc4ccccc4c3)n2)C1` (centres unmarked) [N-ethyl-N′-({1-[4-(2-naphthyl)pyrimidin-2-yl]pyrrolidin-3-yl}methyl)urea], for which the fold induction at 2 µM is 0.93 and the fold induction at 20 µM is 1.2.

For `O[C@H]1CCCN([C@H]2CCN(c3nccc(-c4ccc5ccccc5c4)n3)C2)C1` [(3S)-1-{(3S)-1-[4-(2-naphthyl)pyrimidin-2-yl]pyrrolidin-3-yl}piperidin-3-ol], the EC50 came out at 930 nM.

`c1ccc2cc(-c3ccnc(N4C[C@H]5CNC[C@H]5C4)n3)ccc2c1` [(3aR*,6aS*)-2-[4-(2-naphthyl)pyrimidin-2-yl]octahydropyrrolo[3,4-c]pyrrole]: the fold induction at 2 µM turned out to be 1.73 and the fold induction at 20 µM was 0.01.

`c1ccc2cc(-c3ccnc(N4CCCC4)n3)ccc2c1` [4-(2-naphthyl)-2-pyrrolidin-1-ylpyrimidine]: the fold induction at 2 µM stood at 1.97.

On to `c1ccc2cc(-c3ccnc(NC[C@@H]4CCNC4)n3)ccc2c1` [4-(2-naphthyl)-N-[(3R)-pyrrolidin-3-ylmethyl]pyrimidin-2-amine], for which the EC50 was found to be 3880 nM, the fold induction at 20 µM came out at 0.06 and the “A = MAX FOLD Induction/DMSO CONTROL” value is listed as 7.510 fold.

As to `CN(C)[C@H]1CCN(C[C@H]2CCN(c3nccc(-c4ccc5ccccc5c4)n3)C2)C1` [(3S)—N,N-dimethyl-1-({(3R)-1-[4-(2-naphthyl)pyrimidin-2-yl]pyrrolidin-3-yl}methyl)pyrrolidin-3-amine], the fold induction at 2 µM came to 2.55, the fold induction at 20 µM was 0.02 and the “A = MAX FOLD Induction/DMSO CONTROL” value came out at 2.260 fold.

On to `CN(C)C1CCN(c2nccc(-c3ccc4ccccc4c3)n2)C1` (centres unmarked) [N,N-dimethyl-1-[4-(2-naphthyl)pyrimidin-2-yl]pyrrolidin-3-amine], for which the EC50 came out at 4110 nM, the fold induction at 2 µM is 2, the fold induction at 20 µM stood at 1.91 and the “A = MAX FOLD Induction/DMSO CONTROL” value is on record as 5.503 fold.

`CN(C)C(=O)N1CCC(Nc2nccc(-c3ccc4ccccc4c3)n2)CC1` [N,N-dimethyl-4-{[4-(2-naphthyl)pyrimidin-2-yl]amino}piperidine-1-carboxamide]: the EC50 is 640 nM, the fold induction at 2 µM was found to be 1.13, the fold induction at 20 µM was determined as 1.58 and the “A = MAX FOLD Induction/DMSO CONTROL” value was 1.810 fold.

On to `C[C@H](NC(=O)OC(C)(C)C)C1CCN(c2nccc(-c3ccc4ccccc4c3)n2)CC1` [tert-butyl ((1S)-1-{1-[4-(2-naphthyl)pyrimidin-2-yl]piperidin-4-yl}ethyl)carbamate], for which the fold induction at 20 µM was 1.08.
